Results published in patent US6780414B2 (priority 1998, dated 2004).
Read-outs that look alike come from different tables or passages of the source.

Tests used:
Shiga toxin [1] = target: T1, Shiga toxin (Shigella dysenteriae, UniProt Q7BQ98+Q9FBI2); assay type: cell-based, Shigella dysenteriae 1
Shiga toxin [2] = target: T1, Shiga toxin; conditions: cadaverine 400 μM unless otherwise indicated
stable toxin (YST-I) = stable toxin (YST-I) (Yersinia enterocolitica, UniProt P07593); experiment: Ussing chamber assay, effect of cadaverine on YST-I; assay type: cell-based
Tsh-associated toxin = experiment: Ussing chamber assay, effect of cadaverine on Tsh-associated toxin; assay type: cell-based, avian pathogenic Escherichia coli; conditions: toxin mucosal side; cadaverine (400 μM) both sides
ShET-1 and ShET-2 [3] = assay type: cell-based, Shigella flexneri 2a
[4] = tested on: cytolethal distending toxin; experiment: Ussing chamber assay, effect of cadaverine on cytolethal distending toxin; assay type: cell-based, Campylobacter jejuni
[5] = tested on: S. flexneri-induced PMN transepithelial migration; experiment: PMN transepithelial migration assay across T84 cell monolayers
stable toxin (YST-11) = experiment: Ussing chamber assay, effect of cadaverine on YST-11; assay type: cell-based, Yersinia enterocolitica; conditions: toxin mucosal side; cadaverine (400 μM) both sides
ShET-1 and ShET-2 [6] = experiment: Fluid accumulation in ileal loops, effect of cadaverine; assay type: in vivo, Shigella flexneri 2a; conditions: cadaverine 400 μM unless otherwise indicated
heat stable toxin (STa) = experiment: Ussing chamber assay, effect of cadaverine on heat stable toxin (STa); assay type: cell-based, enterotoxigenic Escherichia coli
BS103 = conditions: T84 monolayers, mean ± SEM
cholera toxin = cholera toxin (Vibrio cholerae serotype O1, UniProt P01555+P01556); assay type: cell-based
[7] = tested on: S. flexneri 2a strain 2457T; assay type: cell-based, Shigella flexneri 2a; conditions: 2457T + 1 mM supplement present only during the two hour invasion period
spa47::lacZ = assay type: cell-based, S. flexneri 2a
[8] = tested on: representative virulence genes; assay type: cell-based, S. flexneri 2a
ipaB::lacZ = assay type: cell-based, S. flexneri 2a
mxiA::lacZ = assay type: cell-based, S. flexneri 2a
[9] = cadaverine 400 μM unless otherwise indicated
[10] = toxin mucosal side, cadaverine (400 μM) both sides

T1 sequence (Q9FBI2 23-315 limits assumed): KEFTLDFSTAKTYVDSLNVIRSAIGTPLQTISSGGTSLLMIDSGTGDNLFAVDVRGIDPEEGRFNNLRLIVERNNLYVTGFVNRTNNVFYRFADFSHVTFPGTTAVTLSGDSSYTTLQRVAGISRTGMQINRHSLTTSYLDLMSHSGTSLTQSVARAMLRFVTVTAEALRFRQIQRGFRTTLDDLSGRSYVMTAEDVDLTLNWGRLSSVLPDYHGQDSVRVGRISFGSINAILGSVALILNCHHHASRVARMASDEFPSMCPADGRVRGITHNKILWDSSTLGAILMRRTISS
T1 sequence (Q7BQ98 21-89 limits assumed): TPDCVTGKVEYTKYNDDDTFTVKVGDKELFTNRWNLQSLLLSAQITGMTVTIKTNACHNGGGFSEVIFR
Chain of cholera toxin (P01555 19-258 limits assumed): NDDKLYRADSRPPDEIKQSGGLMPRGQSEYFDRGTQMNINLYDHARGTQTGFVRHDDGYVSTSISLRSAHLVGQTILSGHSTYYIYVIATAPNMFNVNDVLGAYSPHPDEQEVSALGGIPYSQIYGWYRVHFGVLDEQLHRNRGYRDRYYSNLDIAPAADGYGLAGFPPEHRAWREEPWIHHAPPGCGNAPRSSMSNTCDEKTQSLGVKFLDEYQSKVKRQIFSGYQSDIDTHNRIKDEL
Chain of cholera toxin (P01556 22-124 limits assumed): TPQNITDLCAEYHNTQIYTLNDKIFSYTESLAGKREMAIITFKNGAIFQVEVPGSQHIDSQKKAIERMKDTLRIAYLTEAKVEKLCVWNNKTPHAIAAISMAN

Compound: NCCCCCN [cadaverine, 1,5-diaminopentane]
- Effect of Cadaverine, enterotoxicity in Ussing chambers (Shiga toxin [1]; [9]): blocked;
- ΔIsc + cadaverine (Shiga toxin [1]; [10]): −13.6
- Effect of Cadaverine, cytotoxicity in Vero cells (Shiga toxin [2]): none
- Effect of Cadaverine, enterotoxicity in Ussing chambers (stable toxin (YST-I); [9]): completely
- ΔIsc + cadaverine (stable toxin (YST-I); [10]): −11.0
- ΔIsc + cadaverine (Tsh-associated toxin): 23.3
- Effect of Cadaverine, enterotoxicity in Ussing chambers (ShET-1 and ShET-2 [3]): blocked
- ΔIsc + cadaverine (ShET-1 and ShET-2 [3]): 2.7
- ΔIsc as % of the value in tissues not pretreated (ShET-1 and ShET-2 [3]): 40%
- Effect of Cadaverine, enterotoxicity in Ussing chambers [4, 9]: completely
- ΔIsc + cadaverine [4, 10]: −18.7
- ability of S. flexneri to promote PMN transepithelial migration ([5]; 2457T added basolaterally together with cadaverine 100, 300 and 500 μM (FIG. 3)): dose dependent decrease
- down regulation of S. flexneri-induced PMN transepithelial migration ([5]; T84 infected with 2457T 1 hr, then apical cadaverine 300 μM 30 min (FIG. 5)): 60%
- ΔIsc + cadaverine (stable toxin (YST-11)): 32.4
- Effect of Cadaverine, fluid accumulation in ileal loops (ShET-1 and ShET-2 [6]): both completely
- Effect of Cadaverine, enterotoxicity in Ussing chambers (heat stable toxin (STa); [9]): none
- ΔIsc + cadaverine (heat stable toxin (STa); [10]): 75.9
- % Association BS103 (BS103; 100 μM cadaverine): 4.37 ± 1.64%
- % Internalization BS103 (BS103; 100 μM cadaverine): 0.08 ± 0.02%
- % Association BS103 (BS103; 300 μM cadaverine): 3.14 ± 0.75%
- % Internalization BS103 (BS103; 300 μM cadaverine): 0.03 ± 0.01%
- % Association BS103 (BS103; 500 μM cadaverine): 2.11 ± 0.90%
- % Internalization BS103 (BS103; 500 μM cadaverine): 0.01 ± 0.01%
- Effect of Cadaverine, enterotoxicity in Ussing chambers (cholera toxin; [9]): none
- ΔIsc + cadaverine (cholera toxin; [10]): 70.9

Compound: O=C(O)c1ccc[n+]([C@@H]2O[C@H](COP(=O)(O)O)[C@@H](O)[C@H]2O)c1 [nicotinic acid mononucleotide]
- % FIREWORKS [7]: 17%
- % INVASION [7]: 82%

Compound: O=C(O)c1cccnc1 [nicotinic acid]
- % FIREWORKS [7]: 17%
- % INVASION [7]: 85%

Compound: O=C(O)c1cccnc1C(=O)O [quinolinate]
- Miller Units of activity (spa47::lacZ): 312.3 ± 6.5 Miller Units
- reduction of virulence gene expression [8]: about 50%
- % FIREWORKS [7]: 0%
- % INVASION [7]: 0.5%
- Miller Units of activity (ipaB::lacZ): 140.5 ± 2.9 Miller Units
- Miller Units of activity (mxiA::lacZ): 196.5 ± 2.0 Miller Units
